Data set [1] concerns human breast cancer cell (MCF-7). Description: cells. Conditions: for TGI MCF-7: 72 hours culture with compound, maximum concentration 10 μM; for GI50 / CC50: Homo sapiens, MCF7, 72 h; for GI50: read-out: GI50 MCF-7; for CC50: read-out: LC50 MCF-7. The protocol:
(§1) As positive control substances, 5-fluorouracil (5-FU, Sigma) and gemcitabine hydrochloride (Gemzar, GEM, Eli Lilly Japan K.K.), were tested. The experiment was carried out in accordance with the method carried out by the Commission of Screening for Carcinostatic Agents of the Ministry of Education, Culture, Sports, Science and Technology. With respect to each of experiment groups, the experiment was repeated nine times and an average value was determined. Specifically, each type of cultured cells were seeded into a 96-well microplate at a density of 1×10^4 cells per well (5.0×10^4 cells/mL, 200 μL), the cells were cultured under 5% CO2 at 37° C. for 24 hours, the culture medium was replaced by a culture medium containing the compound (180 μL, the maximum dose of each of the compound was 10 μM, and the final concentration of dimethylsulfoxide (DMSO, Sigma) was adjusted to 0.25%), and the culture was further continued under the same conditions for 72 hours. In this experiment, Dulbecco's modified Eagle's medium (D-MEM, Wako Pure Chemical Industries, Ltd.) was used for the culture of MIA PaCa-2, and Eagle's minimal essential medium (E-MEM, Wako Pure Chemical Industries, Ltd.) was used for the culture of MCF-7.
(§2) After the completion of the culture, alamar blue (20 μL) (Iwaki Glass Co., Ltd.) was added to the culture medium, the resultant mixture was agitated, the culture was then carried out for 3 hours, and fluorescence values were determined on a fluorescence plate reader (Spectra Max M5 (Nihon Molecular Devices Corporation)) at an excitation wavelength of 530 nm and a fluorescence wavelength of 590 nm.
(§3) The fluorescence values immediately before the action of each of the compounds were determined by replacing the culture medium, adding alamar blue (20 μL) immediately after the replacement of the culture medium, agitating the resultant mixture, carrying out the culture for 3 hours, and measuring the fluorescence values on a fluorescence plate reader.
(§4) On the basis of the measurement values thus obtained, Tz (the state of the cultured cells immediately before the action of the compound), GI50 (the concentration of the compound required for inhibiting the proliferation of the cultured cells by 50% relative to the proliferation of the cultured cells in the presence of […]), TGI (the concentration of the compound required for inhibiting the proliferation of the cells in such a manner that the number of the cells became the same as Tz), LC50 (the concentration of the compound required for decreasing the number of the cells to 50% of Tz) and the proliferation rate (the rate of the proliferation of the cultured cells from the time pint of the action of the compound until the time point of the measurement of fluorescence) were determined.
(§5) Due to the problem of the solubility of each of the compounds, the maximum concentration was set at 10 μM.

For data set [2], the system named is human pancreatic cancer cell (MIA PaCa-2). Description: cells. Conditions: for TGI MIA PaCa-2: 72 hours culture with compound, maximum concentration 10 μM; for GI50: read-out: GI50 MIA PaCa-2; for proliferation rate: MIA PaCa-2, at a concentration of 10 μM. On the procedure: as §1, §2, §3, §4, §5

Where a name gives a salt, the structure may show the parent alone.

For the molecule `COCCNS(=O)(=O)c1ccc(OC)c2oc(-c3csc(NC(=O)CCl)n3)cc12` [MU-1497, 2-chloro-N-{4-[7-methoxy-4-(2-methoxyethylsulfamoyl)-benzofuran-2-yl]-thiazol-2-yl}-acetamide], in data set [1], the “concentration at which a cytotoxic or cell proliferation inhibition activity was exhibited” value is no less than 5.0 µM, the “TGI MCF-7” value worked out at 4.70 µM, the GI50 came out at 3.82 µM and the CC50 turned out to be 5.81 µM. For the same molecule, in data set [1] (MCF-7, at a concentration of 10 μM (the maximum dose)), the proliferation rate is reported as −99.71%. Besides, in data set [2], the “concentration at which a cytotoxic or cell proliferation inhibition activity was exhibited” value is no less than 2.5 µM, the “TGI MIA PaCa-2” value is 6.15 µM and the proliferation rate is −95.39%. For the same molecule, the GI50 in data set [2] (Homo sapiens, MIA PaCa-2, 72 h) came to 4.22 µM. In addition, the CC50 in data set [2] (Homo sapiens, MIA PaCa-2, 72 h, read-out: LC50 MIA PaCa-2) was 8.07 µM.

On to `Nc1ccn([C@@H]2O[C@H](CO)[C@@H](O)C2(F)F)c(=O)n1` [GEM, gemcitabine hydrochloride], for which, in data set [1], the “cytotoxic or cell proliferation inhibition activity” value is on record as “did not exhibit either of these activities”, the “TGI MCF-7” value was greater than 10 µM, the GI50 was greater than 10 µM and the CC50 is greater than 10 µM. Besides, in data set [1] (MCF-7), the “concentration from which no increase in the activity was observed” value was no less than 0.05 µM. In data set [1] (MCF-7, at a concentration of 10 ηM), the proliferation rate is 59.52%. For the same molecule, in data set [2], the “cytotoxic or cell proliferation inhibition activity” value was “exhibited a cytotoxic or cell proliferation inhibition activity”, the “TGI MIA PaCa-2” value is greater than 10 µM and the proliferation rate worked out at 26.47%. For the same molecule, the GI50 in data set [2] (Homo sapiens, MIA PaCa-2, 72 h) was 0.035 µM. Moreover, the “concentration from which no increase in the activity was observed” value in data set [2] (MIA PaCa-2) was no less than 0.05 µM.

As to `O=c1[nH]cc(F)c(=O)[nH]1` [5-FU, 5-fluorouracil], in data set [1], the “cytotoxic or cell proliferation inhibition activity” value is “did not exhibit either of these activities”, the “TGI MCF-7” value was greater than 10 µM, the GI50 is greater than 10 µM and the CC50 was greater than 10 µM. Further, in data set [2], the “cytotoxic or cell proliferation inhibition activity” value is “did not exhibit either of these activities” and the “TGI MIA PaCa-2” value is greater than 10 µM. Further, the GI50 in data set [2] (Homo sapiens, MIA PaCa-2, 72 h) was greater than 10 µM.

The values are drawn from US8563743B2, “Benzofuranone compound and pharmaceutical composition containing same” (Fuso Pharmaceutical Industries, Ltd., priority 2010, dated 2013).
